Literature values as cited in patent US20170368150A1, “METHODS OF TREATING PULMONARY SARCOIDOSIS” (GOTHAM BIOPHARMACEUTICALS, INC., priority 2014, published 2017).

Columns and labels:
[1] = tested on: sarcoidosis patients; conditions: human, in vivo
[2] = tested on: people with uveal sarcoidosis; conditions: in vivo
[3] = tested on: persons with pulmonary sarcoidosis; conditions: clinical trials

Substance	efficacy in pulmonary sarcoidosis [3]	further results
Adalimumab	–	fraction of sarcoidosis patients with beneficial response [1]: about half
Etanercept	–	efficacy in uveal sarcoidosis [2]: failed to demonstrate any significant efficacy
Infliximab	some success	–
golimumab	failed to show any benefit	–
